# Results reported in article PMC9607644, “Glycoconjugation of Quinoline Derivatives Using the C-6 Position in Sugars as a Strategy for Improving the Selectivity and Cytotoxicity of Functionalized Compounds” (Molecules, 2022).
# Tests used:
# Type in all cases: cell-based, human
# [1] = tested on: HCT-116 cells; test: Clonogenic assay, HCT-116; conditions: IC50 concentration 72 h, then 10 days in fresh medium
# Method: (§1) MCF-7 and HCT-116 cells were treated with type A glycoconjugates and their ability to proliferate was observed. […] The formed colonies were stained with crystal violet (Figure 5).
# (§2) To determine the number of colonies forming by cells after exposure to the test compounds, a clonogenic assay was performed as reported in the literature. The cells were seeded into 6-well plates at a density of 1 × 10^5 (HCT-116) or 2 × 10^5 (MCF-7, NHDF-Neo) per well (3 mL) and allowed to attach for 24 h under standard conditions with 5% CO2 at 37 °C. The following day, the medium was removed and cells were treated with solutions of test compounds in fresh medium at a dose equal to their IC50 values. Control cells were grown with fresh medium supplemented with 0.5% DMSO. After 72 h of incubation, the cells were collected by trypsinization and then reseeded into new 6-well plates at a density of 1000 cells/well/3 mL. The plates with cells were incubated for 10 days under standard conditions with 5% CO2 at 37 °C. After this time, the medium was removed and the cells were washed with PBS, fixed with ice-cold ethanol (-20 °C) for 3 min, and washed again with PBS. Finally, cells were stained with crystal violet (0.01% in H2O; Sigma-Aldrich, Taufkirchen, Germany) for 20 min. The plates were then washed with H2O and allowed to air-dry.
# [2] = tested on: MCF-7 cells; test: Clonogenic assay, MCF-7; conditions: IC50 concentration 72 h, then 10 days in fresh medium
# Method: as §1, §2
# [3] = tested on: NHDF-Neo cells; test: Cell cycle analysis by flow cytometry, NHDF-Neo; conditions: IC50 dose, 24 h
# Description: After determining the type of cell death caused by the test compounds, the flow cytometry technique was used to study their influence on potential changes in the course of the cell cycle of the HCT-116, MCF-7, and NHDF-Neo lines. The cell cycle is the sequence of growth and division of cells, both normal and cancerous. This process begins from the resting phase (G0) through the active growth phases (G1, S, G2), leading to mitosis (M) in which the cell’s nucleus divides. […] After this time, cells were harvested and treated with a buffer to lysate the cells and isolate the cell nuclei. Propidium iodide was used to assess the amount of DNA in particular phases of the cell cycle. Histograms of DNA content in cells are presented in the Supplementary Materials (Figure S74).
# The cell cycle and the type of cell death induced by the test compounds were measured by using flow cytometry according to the manufacturer’s protocol. The cells were seeded into 6-well plates at a density of 3 × 10^5 (HCT-116) or 4 × 10^5 (MCF-7, NHDF-Neo) per well (3 mL) and allowed to attach for 24 h under standard conditions with 5% CO2 at 37 °C. The following day, the medium was removed and cells were treated with solutions of test compounds in fresh medium at a dose equal to their IC50 values. Control cells were grown with fresh medium supplemented with 0.5% DMSO. After 24 h of incubation, the cells were collected by trypsinization. Then, samples were centrifuged (3 min, 2000 rpm, RT) and washed with PBS, after which the cells were centrifuged again (3 min, 2000 rpm, RT) and the supernatant was carefully removed. The resulting precipitate contained cells, which were used for flow cytometry experiments.
# For cell cycle analysis, the cells were suspended in 300 μL of hypotonic buffer (consisting of: sodium citrate dihydrate 1 g/L, propidium iodide (PI) 1 mg/mL, RNAse A 10 mg/mL (EURx, Gdańsk, Poland), Triton X-100 1:9), mixed gently and incubated in the dark at room temperature for 20–30 min. […]
Structure (SMILES),"clonogenic potential, HCT-116 [1]","clonogenic potential, MCF-7 [2]","cell cycle phase distribution in words, NHDF-Neo [3]"
CC(=O)OC1O[C@H](Cn2cc(COc3cccc4cccnc34)nn2)[C@@H](OC(C)=O)[C@H](OC(C)=O)[C@H]1OC(C)=O (stereo partly drawn) [Compound A-1],able to decrease the clonogenic potential,able to decrease the clonogenic potential,slightly decreased the number of cells in the G2/M phase with a simultaneous slight increase in the percentage of cells in the G0/G1 phase
OC1O[C@H](Cn2cc(COc3cccc4cccnc34)nn2)[C@@H](O)[C@H](O)[C@H]1O (stereo partly drawn) [Compound A-2],able to decrease the clonogenic potential,able to decrease the clonogenic potential,slightly decreased the number of cells in the G2/M phase with a simultaneous slight increase in the percentage of cells in the G0/G1 phase
